Data from the supplement of paper PMC10307832.

How the values were obtained:
Assay in all cases: relative viability (nuclei count vs DMSO), 5 days (fraction); higher = more cells survive
HCC-15 = test system: HCC-15
In short: (§1)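 The day after seeding in 1536-well plates, lung cancer cell lines were treated by pin tool with a single drug, or with a fixed anchor-drug dose together with five library-drug doses (not always all listed) in √10 steps. After 5 days, a combined fix-and-stain solution (final 0.05% Triton X-100, 1% formaldehyde, 1 ug/ml Hoechst) was added. Nuclei counted on 4× images gave relative viability as treated counts over vehicle counts, reported as the median of duplicate plates.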

NCI-H1651 = test system: NCI-H1651
In short: as §1

EMC-BAC-2 = test system: EMC-BAC-2
In short: as §1

BEN = test system: BEN
In short: as §1

NCI-H838 = test system: NCI-H838
In short: as §1

NCI-H358 = test system: NCI-H358
In short: as §1

NCI-H2023 = test system: NCI-H2023
In short: as §1

LK-2 = test system: LK-2
In short: as §1

COR-L 105 = test system: COR-L 105
In short: as §1

NCI-H322M = test system: NCI-H322M
In short: as §1

ABC-1 = test system: ABC-1
In short: as §1

NCI-H1563 = test system: NCI-H1563
In short: as §1

NCI-H727 = test system: NCI-H727
In short: as §1

201T = test system: 201T
In short: as §1

HCC-44 = test system: HCC-44
In short: as §1

NCI-H520 = test system: NCI-H520
In short: as §1

CAL-12T = test system: CAL-12T
In short: as §1

NCI-H460 = test system: NCI-H460
In short: as §1

EKVX = test system: EKVX
In short: as §1

LU99A = test system: LU99A
In short: as §1

PC-3 [JPC-3] = test system: PC-3 [JPC-3]
In short: as §1

SMILES: Cc1csc(=NC2CCCCC2)n1/N=C/c1ccc(O)c(O)c1O [MIM1] + CS(=O)(=O)CCNCc1ccc(-c2ccc3ncnc(Nc4ccc(OCc5cccc(F)c5)c(Cl)c4)c3c2)o1 [Lapatinib] (partner 2 µM)
- relative viability (HCC-15; first compound 0.2 µM): 0.844
- relative viability (HCC-15; first compound 0.6325 µM): 0.554
- relative viability (HCC-15; first compound 2 µM): 0.98
- relative viability (HCC-15; first compound 6.325 µM): 0.415
- relative viability (HCC-15; first compound 20 µM): 0.102
- relative viability (NCI-H1651; first compound 0.2 µM): 0.883
- relative viability (NCI-H1651; first compound 0.6325 µM): 0.854
- relative viability (NCI-H1651; first compound 2 µM): 0.95
- relative viability (NCI-H1651; first compound 6.325 µM): 0.655
- relative viability (NCI-H1651; first compound 20 µM): 0.274
- relative viability (EMC-BAC-2; first compound 0.2 µM): 0.861
- relative viability (EMC-BAC-2; first compound 0.6325 µM): 0.713
- relative viability (EMC-BAC-2; first compound 2 µM): 0.869
- relative viability (EMC-BAC-2; first compound 6.325 µM): 0.828
- relative viability (EMC-BAC-2; first compound 20 µM): 0.212
- relative viability (BEN; first compound 0.2 µM): 0.732
- relative viability (BEN; first compound 0.6325 µM): 0.674
- relative viability (BEN; first compound 2 µM): 0.843
- relative viability (BEN; first compound 6.325 µM): 0.622
- relative viability (BEN; first compound 20 µM): 0.193
- relative viability (NCI-H838; first compound 0.2 µM): 0.941
- relative viability (NCI-H838; first compound 0.6325 µM): 0.885
- relative viability (NCI-H838; first compound 2 µM): 0.815
- relative viability (NCI-H838; first compound 6.325 µM): 0.672
- relative viability (NCI-H838; first compound 20 µM): 0.183
- relative viability (NCI-H358; first compound 0.2 µM): 0.506
- relative viability (NCI-H358; first compound 0.6325 µM): 0.475
- relative viability (NCI-H358; first compound 2 µM): 0.433
- relative viability (NCI-H358; first compound 6.325 µM): 0.36
- relative viability (NCI-H358; first compound 20 µM): 0.303
- relative viability (NCI-H2023; first compound 0.2 µM): 0.947
- relative viability (NCI-H2023; first compound 0.6325 µM): 0.716
- relative viability (NCI-H2023; first compound 2 µM): 0.683
- relative viability (NCI-H2023; first compound 6.325 µM): 0.253
- relative viability (NCI-H2023; first compound 20 µM): 0.0707
- relative viability (LK-2; first compound 0.2 µM): 0.911
- relative viability (LK-2; first compound 0.6325 µM): 0.881
- relative viability (LK-2; first compound 2 µM): 0.697
- relative viability (LK-2; first compound 6.325 µM): 0.835
- relative viability (LK-2; first compound 20 µM): 0.268
- relative viability (COR-L 105; first compound 0.2 µM): 0.371
- relative viability (COR-L 105; first compound 0.6325 µM): 0.331
- relative viability (COR-L 105; first compound 2 µM): 0.373
- relative viability (COR-L 105; first compound 6.325 µM): 0.319
- relative viability (COR-L 105; first compound 20 µM): 0.294
- relative viability (NCI-H322M; first compound 0.2 µM): 0.653
- relative viability (NCI-H322M; first compound 0.6325 µM): 0.531
- relative viability (NCI-H322M; first compound 2 µM): 0.532
- relative viability (NCI-H322M; first compound 6.325 µM): 0.577
- relative viability (NCI-H322M; first compound 20 µM): 0.801
- relative viability (ABC-1; first compound 0.2 µM): 1.32
- relative viability (ABC-1; first compound 0.6325 µM): 1.24
- relative viability (ABC-1; first compound 2 µM): 1.31
- relative viability (ABC-1; first compound 6.325 µM): 1.06
- relative viability (ABC-1; first compound 20 µM): 1.11
- relative viability (NCI-H1563; first compound 0.2 µM): 0.903
- relative viability (NCI-H1563; first compound 0.6325 µM): 1.04
- relative viability (NCI-H1563; first compound 2 µM): 0.853
- relative viability (NCI-H1563; first compound 6.325 µM): 0.825
- relative viability (NCI-H1563; first compound 20 µM): 0.462
- relative viability (NCI-H727; first compound 0.2 µM): 0.852
- relative viability (NCI-H727; first compound 0.6325 µM): 0.969
- relative viability (NCI-H727; first compound 2 µM): 0.733
- relative viability (NCI-H727; first compound 6.325 µM): 0.745
- relative viability (NCI-H727; first compound 20 µM): 0.257
- relative viability (201T; first compound 0.2 µM): 1.08
- relative viability (201T; first compound 0.6325 µM): 1.05
- relative viability (201T; first compound 2 µM): 1.01
- relative viability (201T; first compound 6.325 µM): 0.49
- relative viability (201T; first compound 20 µM): 0.617
- relative viability (HCC-44; first compound 0.2 µM): 1.07
- relative viability (HCC-44; first compound 0.6325 µM): 0.969
- relative viability (HCC-44; first compound 2 µM): 0.798
- relative viability (HCC-44; first compound 6.325 µM): 0.346
- relative viability (HCC-44; first compound 20 µM): 0.128
- relative viability (NCI-H520; first compound 0.2 µM): 0.823
- relative viability (NCI-H520; first compound 0.6325 µM): 0.691
- relative viability (NCI-H520; first compound 2 µM): 0.924
- relative viability (NCI-H520; first compound 6.325 µM): 0.691
- relative viability (NCI-H520; first compound 20 µM): 0.269
- relative viability (CAL-12T; first compound 0.2 µM): 0.615
- relative viability (CAL-12T; first compound 2 µM): 0.754
- relative viability (CAL-12T; first compound 6.325 µM): 0.578
- relative viability (CAL-12T; first compound 20 µM): 0.22
- relative viability (NCI-H460; first compound 0.2 µM): 0.889
- relative viability (NCI-H460; first compound 0.6325 µM): 1.01
- relative viability (NCI-H460; first compound 2 µM): 0.351
- relative viability (NCI-H460; first compound 6.325 µM): 0.256
- relative viability (NCI-H460; first compound 20 µM): 0.0216
- relative viability (EKVX; first compound 0.2 µM): 0.186
- relative viability (EKVX; first compound 0.6325 µM): 0.221
- relative viability (EKVX; first compound 2 µM): 0.179
- relative viability (EKVX; first compound 6.325 µM): 0.177
- relative viability (EKVX; first compound 20 µM): 0.178
- relative viability (LU99A; first compound 0.2 µM): 1.08
- relative viability (LU99A; first compound 0.6325 µM): 0.894
- relative viability (LU99A; first compound 2 µM): 0.779
- relative viability (LU99A; first compound 6.325 µM): 0.915
- relative viability (LU99A; first compound 20 µM): 0.282
- relative viability (PC-3 [JPC-3]; first compound 0.2 µM): 0.486
- relative viability (PC-3 [JPC-3]; first compound 0.6325 µM): 0.505
- relative viability (PC-3 [JPC-3]; first compound 2 µM): 0.424
- relative viability (PC-3 [JPC-3]; first compound 6.325 µM): 0.45
- relative viability (PC-3 [JPC-3]; first compound 20 µM): 0.46
